Source: article PMC10945501, “Development and In Vivo Evaluation of Small-Molecule Ligands for Positron Emission Tomography of Immune Checkpoint Modulation Targeting Programmed Cell Death 1 Ligand 1” (Journal of Medicinal Chemistry, 2024)
“And” between values parts separate entries of the source, which are not always exact repeats. Identical values can stand only once. Like-named read-outs stand apart in the source and are kept apart here. Blank lines part the entries; values can stand above or below the compound they belong to.

Experiments:
[1] = tested on: PD-L1; settings: cited from earlier work
[2] = Lipophilicity by HPLC method (μHPLC logD); settings: for chromatographic logD: pH 7.4, μHPLC logD; for μHPLC logD: pH 7.4
[3] = biological target: T1, human PD-L1 (Homo sapiens, UniProt Q9NZQ7); test: HTRF PD-1/PD-L1 binding assay (cell-free); settings: for fold decrease in affinity by methylation at R3*: pairs 4c vs 5a, 4c vs 5b, 4e vs 5c, 4e vs 5d; for IC50: cell-free competitive PD-1/PD-L1 HTRF, mean ± SD, read-out: IC50 (hPD-L1 binding affinity, HTRF); for fold decrease in affinity by fluoroethylation / fluoroethyl carbamylation at R3*: pairs 4f vs 5h, 4j vs 5j
T1 construct: purchased Cisbio Bioassays SAS, Codolet, France 64PD1PEG

[4] = biological target: T2, PD-L1 (CHO-hPD-L1 cells) (Homo sapiens, UniProt Q9NZQ7); test: Competitive radioligand binding assay with [^89Zr]Zr-atezolizumab, PD-L1-positive cells; settings: for % applied activity ([^89Zr]Zr-atezolizumab bound) / blockade of antibody binding: CHO-hPD-L1 cells; for % applied activity ([^89Zr]Zr-atezolizumab bound): preincubation with 5,000 nM blocker; for blockade of antibody binding: highest noncytotoxic concentration; for Ki: range contingent on published KD values of atezolizumab, read-out: Ki (Cheng–Prusoff)
T2 construct: host or cells: CHO (Chinese hamster ovary) cells, kept under G418 selection

[5] = tested on: CHO-hPD-L1 cells; test: MTT cell viability assay; format: cell-based, Chinese hamster; settings: Cricetulus griseus, 24 h
[6] = tested on: PD-L1-negative (CHO) cells; test: Competitive radioligand binding assay with [^89Zr]Zr-atezolizumab, PD-L1-negative cells; parameters: species or system Chinese hamster
Protocol: When 5a and 5c were administered at their highest noncytotoxic concentrations, a 50% blockade of antibody binding was observed (p = 0.034, p = 0.025, respectively).
Nonspecific binding of MultiScreen plates (Merck KGaA, Darmstadt, Germany) was blocked with additive-free Ham’s F-12 medium for 30 min, followed by the addition of 2 × 10^5 CHO-K1 (ATCC, Manassas, USA) or CHO-hPD-L1 cells in 150 μL of additive-free Ham’s F-12 medium per well. […] Supernatant was removed after 60 min of incubation using the MultiScreenHTS vacuum filtration system (Merck KGaA, Darmstadt, Germany) and cells were washed twice with DPBS. After drying, filters were punched and measured in a Wizard^2 γ counter (PerkinElmer, Waltham, USA).

[7] = literature IC50 as stated in the original patent, read-out: Lit. IC50
[8] = preincubation with 5,000 nM blocker
[9] = read-out: IC50 (Figure 1, previously reported ligands)

T1 sequence (Q9NZQ7 19-238 limits assumed): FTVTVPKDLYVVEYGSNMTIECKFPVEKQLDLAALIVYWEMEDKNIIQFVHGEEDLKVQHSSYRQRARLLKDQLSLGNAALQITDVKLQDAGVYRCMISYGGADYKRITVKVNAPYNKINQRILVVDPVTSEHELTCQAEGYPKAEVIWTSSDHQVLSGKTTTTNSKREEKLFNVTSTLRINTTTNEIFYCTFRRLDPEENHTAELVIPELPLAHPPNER
T2 sequence (Q9NZQ7 19-290): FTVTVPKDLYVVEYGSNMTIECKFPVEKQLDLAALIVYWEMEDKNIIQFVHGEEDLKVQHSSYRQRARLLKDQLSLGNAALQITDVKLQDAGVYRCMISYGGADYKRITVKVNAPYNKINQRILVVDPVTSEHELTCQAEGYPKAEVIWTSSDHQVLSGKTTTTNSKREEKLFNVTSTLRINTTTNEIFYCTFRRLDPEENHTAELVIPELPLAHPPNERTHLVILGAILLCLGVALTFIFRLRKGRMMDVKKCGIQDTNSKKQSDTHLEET

Compound: Cc1c(COc2cc(CNC[C@@H](O)C(=O)O)ccc2C(F)(F)F)cccc1-c1ccc2c(c1)OCCO2 [BMS-114]
IC50 [1, 7]: 43 nM

Compound: Cc1c(COc2ccc(CN[C@H](CO)C(=O)O)c(OCc3cccc(C#N)c3)c2)cccc1-c1ccccc1 [BMS-1016]
IC50 [1, 7]: 4.55 nM

Compound: CC(=O)NCCNCc1ccc(OCc2cccc(-c3ccccc3)c2C)cc1OCc1ccc(C(=O)O)cc1 [BMS-1043]
IC50 [1, 7]: 239 nM

Compound: CC(=O)NCCNCc1ccc(OCc2cccc(-c3ccccc3)c2C)cc1OCc1ccccc1[N+](=O)[O-] [BMS-1057]
IC50 [1, 7]: 986 nM

Compound: CC(=O)NCCNCc1ccc(OCc2cccc(-c3ccccc3)c2C)cc1OCc1cccc(OC(F)(F)F)c1 [BMS-1082]
IC50 [1, 7]: 828 nM

Compound: CC(=O)NCCNCc1ccc(OCc2cccc(-c3ccccc3)c2C)cc1OCc1cc(C#N)ccc1F [BMS-1095]
IC50 [1, 7]: 81.2 nM

Compound: CC(=O)NCCNCc1ccc(OCc2cccc(-c3ccccc3)c2C)cc1OCc1ccc(F)c(C)c1 [BMS-1108]
IC50 [1, 7]: 624 nM

Compound: CC(=O)NCCNCc1ccc(Oc2cccc(-c3ccccc3)c2C)cc1OCc1cccc(NC(=O)OC(C)(C)C)c1 [BMS-1119]
IC50 [1, 7]: 14200 nM

Compound: Cc1c(COc2cc(OCc3cccc(C#N)c3)c(CN[C@H](CCO)C(=O)O)cc2Cl)cccc1-c1ccc2c(c1)OCCO2 [BMS-1205]
IC50 [1, 7]: 2.71 nM

Compound: Cc1c(COc2cc(OCc3cccc(C#N)c3)c(CNC(C(=O)O)C(C)(C)O)cc2Cl)cccc1-c1ccc2c(c1)OCCO2 (stereo not shown) [BMS-1210]
IC50 [1, 7]: 12.7 nM

Compound: Cc1c(COc2cc(OCc3cccc(C#N)c3)c(CNC(CO)(Cc3ccccc3)C(=O)O)cc2Cl)cccc1-c1ccc2c(c1)OCCO2 (stereo not shown) [BMS-1218]
IC50 [1, 7]: 10.1 nM

Compound: Cc1c(COc2cc(OCc3cccc(C#N)c3)c(CNC3(C(=O)O)CCN(C)CC3)cc2Cl)cccc1-c1ccc2c(c1)OCCO2 [BMS-1220]
IC50 [1, 7]: 6.07 nM

Compound: Cc1c(COc2ccc(CN[C@](C)(CO)C(=O)O)c(OCc3cccc(C#N)c3)c2Cl)cccc1-c1ccc2c(c1)OCCO2 [BMS-1239]
IC50 [1, 7]: 149 nM

Compound: Cc1c(COc2cc(OCc3cncc(C#N)c3)c(CNC[C@@H](O)CC(=O)O)cc2Cl)cccc1-c1ccc2c(c1)OCCO2 [BMS-1250]
IC50 [1, 7]: 1.19 nM

Compound: Cc1cc(CN2CCCC[C@@H]2C(=O)O)c(OCc2cncc(C#N)c2)cc1OCc1cccc(-c2ccc3c(c2)OCCO3)c1C [BMS-1288]
IC50 [1, 7]: 1.88 nM

Compound: Cc1cc(CNCCO)c(OCc2cncc(C#N)c2)cc1OCc1cccc(-c2ccc3c(c2)OCCO3)c1C#N [BMS-1306]
IC50 [1, 7]: 0.92 nM

Compound: Cc1c(COc2cc(OCc3cncc(C(=O)O)c3)c(CN[C@@H](CCCN)C(=O)O)cc2Cl)cccc1-c1ccc2c(c1)OCCO2 [BMS-2002]
IC50 [1, 7]: 10 nM

Compound: Cc1c(COc2cc(OCc3cncc(C#N)c3)c(CN[C@@H](Cc3cccnc3)C(=O)O)cc2Cl)cccc1-c1ccc2c(c1)OCCO2 [BMS-2010]
IC50 [1, 7]: 50 nM

Compound: Cc1c(COc2cc(OCc3cncc(S(C)(=O)=O)c3)c(CO)cc2Cl)cccc1-c1ccc2c(c1)OCCO2 [BMS-3013]
IC50 [1, 7]: 80 nM

Compound: Cc1c(COc2cc(OCc3cncc(C#N)c3)c(CN[C@H](CC(N)=O)C(=O)O)cc2Cl)cccc1-c1ccc2c(c1)OCCO2 [BMS-3024]
IC50 [1, 7]: 5.54 nM

Compound: COc1ccccc1COc1cc(OCc2cccc(-c3ccc4c(c3)OCCO4)c2C)c(Cl)cc1CN1CCCC[C@H]1C(=O)O [BMS-3029]
IC50 [1, 7]: 2350 nM

chromatographic logD [2]: 3.36 ± 0.04
fold decrease in affinity by methylation at R3* ([3]; IC50 ratio): 1.02 fold
IC50 [3]: 6.2 ± 0.6 nM
% applied activity ([^89Zr]Zr-atezolizumab bound) [4]: 4.2 % applied activity
Ki [4]: 700 to 4500 nM
Compound: Cc1c(COc2cc(OCc3ccnc(C#N)c3)c(CN(C)[C@H](CO)C(=O)O)cc2Cl)cccc1-c1ccc2c(c1)OCCO2 [Compound 5a, N-(5-Chloro-2-((2-cyanopyridin-4-yl)methoxy)-4-((3-(2,3-dihydrobenzo[b][1,4]dioxin-6-yl)-2-methylbenzyl)oxy)benzyl)-N-methyl-D-serine]
blockade of antibody binding [4]: 50%
EC50 ([5]; read-out: Relative EC50 (cell viability, MTT)): 20600 nM
% applied activity ([^89Zr]Zr-atezolizumab bound) [6, 8]: 0.2 % applied activity

μHPLC logD [2]: 4.9 ± 0.3
chromatographic logD [2]: 4.93 ± 0.27
fold decrease in affinity by methylation at R3* ([3]; IC50 ratio): 1.32 fold
IC50 [3]: 10 nM and 10.2 nM
% applied activity ([^89Zr]Zr-atezolizumab bound) [4]: 4.7 % applied activity
Ki [4]: 700 to 4500 nM
Compound: Cc1c(COc2cc(OCc3ccnc(C#N)c3)c(CN(C)CCO)cc2Cl)cccc1-c1ccc2c(c1)OCCO2 [Compound 5c, 4-((4-Chloro-5-((3-(2,3-dihydrobenzo[b][1,4]dioxin-6-yl)-2-methylbenzyl)oxy)-2-(((2-hydroxyethyl)(methyl)amino)methyl)phenoxy)methyl)picolinonitrile]
blockade of antibody binding [4]: 50%
EC50 ([5]; CHO-hPD-L1 cells, read-out: EC50 (cell viability, MTT)): 11600 nM
% applied activity ([^89Zr]Zr-atezolizumab bound) [6, 8]: 0.1 % applied activity

μHPLC logD [2]: 4.5 ± 0.2
chromatographic logD [2]: 4.54 ± 0.21
fold reduction of affinity, pyrrole at R1 vs 1,4-benzodioxanyl analogue ([3]; IC50 ratio, pairs 4c vs 4m, 4e vs 4n, 4f vs 4o, 5c vs 5f): 1.61 fold
IC50 [3]: 16 ± 4 nM
Compound: Cc1c(COc2cc(OCc3ccnc(C#N)c3)c(CN(C)CCO)cc2Cl)cccc1-n1cccc1 [Compound 5f, 4-((4-Chloro-2-(((2-hydroxyethyl)(methyl)amino)methyl)-5-((2-methyl-3-(1H-pyrrol-1-yl)benzyl)oxy)phenoxy)methyl)picolinonitrile]

chromatographic logD [2]: > 5.75
IC50 [3]: 12 ± 2 nM
Compound: Cc1c(COc2cc(OCc3ccnc(C#N)c3)c(CN3CCOC3CF)cc2Cl)cccc1-c1ccc2c(c1)OCCO2 (stereo not shown) [Compound 5g, 4-((4-Chloro-5-((3-(2,3-dihydrobenzo[b][1,4]dioxin-6-yl)-2-methylbenzyl)oxy)-2-((2-(fluoromethyl)oxazolidin-3-yl)methyl)phenoxy)methyl)picolinonitrile]

chromatographic logD [2]: > 5.75
fold decrease in affinity by fluoroethylation / fluoroethyl carbamylation at R3* ([3]; IC50 ratio): 265 fold
IC50 [3]: 1290 nM
Compound: Cc1c(COc2cc(OCc3ccnc(C#N)c3)c(CN3CCCC[C@H]3C(=O)OCCF)cc2Cl)cccc1-c1ccc2c(c1)OCCO2 [Compound 5h, 2-Fluoroethyl (S)-1-(5-Chloro-2-((2-cyanopyridin-4-yl)methoxy)-4-((3-(2,3-dihydrobenzo[b][1,4]dioxin-6-yl)-2-methylbenzyl)oxy)benzyl)piperidine-2-carboxylate]

Compound: Cc1c(COc2cc(OCc3ccnc(C#N)c3)c(CNCCF)cc2Cl)cccc1-c1ccc2c(c1)OCCO2 [Compound 5i, 4-((4-Chloro-5-((3-(2,3-dihydrobenzo[b][1,4]dioxin-6-yl)-2-methylbenzyl)oxy)-2-(((2-fluoroethyl)amino)methyl)phenoxy)methyl)picolinonitrile]
μHPLC logD [2]: 5.2 ± 0.3
chromatographic logD [2]: 5.21 ± 0.31
IC50 [3]: 12 ± 1 nM

chromatographic logD [2]: 4.9 ± 0.3
fold decrease in affinity by fluoroethylation / fluoroethyl carbamylation at R3* ([3]; IC50 ratio): 160 fold
IC50 [3]: 1700 nM
Compound: CC(=O)NCCN(Cc1cc(Cl)c(OCc2cccc(-c3ccc4c(c3)OCCO4)c2C)cc1OCc1cccc(C#N)c1)C(=O)OCCF [Compound 5j, 2-Fluoroethyl (2-acetamidoethyl)(5-chloro-2-((3-cyanobenzyl)oxy)-4-((3-(2,3-dihydrobenzo[b][1,4]dioxin-6-yl)-2-methylbenzyl)oxy)benzyl)carbamate]

Compound: N#Cc1cncc(COc2cc(OCc3cccc(-c4ccccc4)c3Br)c(Cl)cc2CN2CCCC[C@H]2C(=O)O)c1 [Example 8]
IC50 [1, 9]: 0.01 to 0.1 nM

Compound: N#Cc1cc(COc2cc(OCc3cccc(-c4ccc5c(c4)OCCO5)c3Br)c(Cl)cc2CN2CCCC[C@H]2C(=O)O)ccn1 [Example 15]
IC50 [1, 9]: 0.001 to 0.01 nM

Compound: COc1cc(OCc2cccc(-c3ccccc3)c2C)cc(OC)c1CN1CCCC[C@H]1C(=O)O [PD-1/PD-L1 Inhibitor 1, reference compound]
EC50 ([5]; read-out: EC50 (cell viability, MTT)): 52300 nM

IC50 [3]: 4.1 nM
Compound: atezolizumab: high-affinity anti-PD-L1 antibody used for reference [reference compound]
% applied activity ([^89Zr]Zr-atezolizumab bound) ([6]; preincubation with 200 nM blocker): 0.1 % applied activity
